Results on six cell lines are retold here after the supplement of paper PMC10307832.

What all share (experiment): relative viability (nuclei count vs DMSO), 5 days (fraction); higher = more cells survive
Compound in the assay “Bexarotene + OSI-027”: C=C(c1ccc(C(=O)O)cc1)c1cc2c(cc1C)C(C)(C)CCC2(C)C [Bexarotene] + COc1cccc2cc(-c3nc([C@H]4CC[C@H](C(=O)O)CC4)n4ncnc(N)c34)[nH]c12 [OSI-027] (partner 0.5 µM)
The gist of the method:
(§1)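 Nuclei were stained with Hoechst during a one-step fixation (final 0.05% Triton X-100, 1% formaldehyde, 1 ug/ml Hoechst) carried out 5 days after dosing, then counted on 4× images. The cells, lung cancer lines in 1536-well plates, had been dosed by pin tool the day after seeding with one drug alone or a fixed anchor-drug dose plus five library-drug doses (not always all listed) in √10 steps. Relative viability is the nuclei count in treated wells divided by that in vehicle wells, and each value is the median of duplicate plates.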

Compound in the assay “Bexarotene + Crizotinib”: C=C(c1ccc(C(=O)O)cc1)c1cc2c(cc1C)C(C)(C)CCC2(C)C [Bexarotene] + C[C@@H](Oc1cc(-c2cnn(C3CCNCC3)c2)cnc1N)c1c(Cl)ccc(F)c1Cl [Crizotinib] (partner 1 µM)
The procedure, abridged: as §1

Compound in the assay “Bexarotene + Linsitinib”: C=C(c1ccc(C(=O)O)cc1)c1cc2c(cc1C)C(C)(C)CCC2(C)C [Bexarotene] + C[C@]1(O)C[C@@H](c2nc(-c3ccc4ccc(-c5ccccc5)nc4c3)c3c(N)nccn32)C1 [Linsitinib] (partner 1 µM)
The procedure, abridged:
as §1

Compound in the assay “Bexarotene + Tozasertib”: C=C(c1ccc(C(=O)O)cc1)c1cc2c(cc1C)C(C)(C)CCC2(C)C [Bexarotene] + Cc1cc(Nc2cc(N3CCN(C)CC3)nc(Sc3ccc(NC(=O)C4CC4)cc3)n2)n[nH]1 [Tozasertib] (partner 0.1 µM)
The gist of the method:
as §1

As for HCC-15, the relative viability with Bexarotene + OSI-027 (first compound 0.08 µM) was found to be 0.792; with Bexarotene + OSI-027 (first compound 0.253 µM), 0.806; with Bexarotene + OSI-027 (first compound 0.8 µM) it was 0.631; in the assay with Bexarotene + OSI-027 (first compound 2.53 µM) it was 0.621; with Bexarotene + OSI-027 (first compound 8 µM), 0.632; with Bexarotene + Crizotinib (first compound 0.08 µM), 0.842. In addition, the relative viability in the assay with Bexarotene + Crizotinib (first compound 0.253 µM) came to 0.924; in the assay with Bexarotene + Crizotinib (first compound 0.8 µM), 0.789; with Bexarotene + Crizotinib (first compound 2.53 µM), 0.837; with Bexarotene + Crizotinib (first compound 8 µM), 0.783; with Bexarotene + Linsitinib (first compound 0.08 µM), 0.957; in the assay with Bexarotene + Linsitinib (first compound 0.253 µM), 0.932. Further, the relative viability came out at 0.678 with Bexarotene + Linsitinib (first compound 0.8 µM); 0.787 in the assay with Bexarotene + Linsitinib (first compound 2.53 µM); 0.772 with Bexarotene + Linsitinib (first compound 8 µM); 0.357 with Bexarotene + Tozasertib (first compound 0.08 µM); 0.531 in the assay with Bexarotene + Tozasertib (first compound 0.253 µM); 0.415 with Bexarotene + Tozasertib (first compound 0.8 µM). Further, the relative viability is 0.44 in the assay with Bexarotene + Tozasertib (first compound 2.53 µM) and 0.34 with Bexarotene + Tozasertib (first compound 8 µM).

PC-3 [JPC-3]: the relative viability turned out to be 0.816 in the assay with Bexarotene + OSI-027 (first compound 0.08 µM); 0.798 with Bexarotene + OSI-027 (first compound 0.253 µM); 0.604 in the assay with Bexarotene + OSI-027 (first compound 0.8 µM); 0.733 in the assay with Bexarotene + OSI-027 (first compound 2.53 µM); 0.676 with Bexarotene + OSI-027 (first compound 8 µM); 1.02 in the assay with Bexarotene + Crizotinib (first compound 0.08 µM). Further, the relative viability with Bexarotene + Crizotinib (first compound 0.253 µM) worked out at 1.02; with Bexarotene + Crizotinib (first compound 0.8 µM), 0.904; in the assay with Bexarotene + Crizotinib (first compound 2.53 µM) it was 0.965; with Bexarotene + Crizotinib (first compound 8 µM), 0.857; in the assay with Bexarotene + Linsitinib (first compound 0.08 µM), 0.98; in the assay with Bexarotene + Linsitinib (first compound 0.253 µM), 1.03. Also, the relative viability in the assay with Bexarotene + Linsitinib (first compound 0.8 µM) was determined as 0.829; with Bexarotene + Linsitinib (first compound 2.53 µM), 0.882; in the assay with Bexarotene + Linsitinib (first compound 8 µM), 0.827; with Bexarotene + Tozasertib (first compound 0.08 µM), 0.905; in the assay with Bexarotene + Tozasertib (first compound 0.253 µM), 0.889; with Bexarotene + Tozasertib (first compound 0.8 µM) it was 0.758. Further, the relative viability was 0.862 with Bexarotene + Tozasertib (first compound 2.53 µM) and 0.755 in the assay with Bexarotene + Tozasertib (first compound 8 µM).

With NCI-H1993, the relative viability in the assay with Bexarotene + OSI-027 (first compound 0.08 µM) stood at 0.588; with Bexarotene + OSI-027 (first compound 0.253 µM), 0.498; in the assay with Bexarotene + OSI-027 (first compound 0.8 µM), 0.564; with Bexarotene + OSI-027 (first compound 2.53 µM), 0.54; with Bexarotene + OSI-027 (first compound 8 µM), 0.564; with Bexarotene + Crizotinib (first compound 0.08 µM) it was 0.926. Further, the relative viability with Bexarotene + Crizotinib (first compound 0.253 µM) is 0.751; in the assay with Bexarotene + Crizotinib (first compound 0.8 µM) it was 0.71; with Bexarotene + Crizotinib (first compound 2.53 µM), 0.831; with Bexarotene + Crizotinib (first compound 8 µM), 0.746; in the assay with Bexarotene + Linsitinib (first compound 0.08 µM), 0.718; in the assay with Bexarotene + Linsitinib (first compound 0.253 µM), 0.665. The relative viability with Bexarotene + Linsitinib (first compound 0.8 µM) was found to be 0.608; with Bexarotene + Linsitinib (first compound 2.53 µM), 0.656; in the assay with Bexarotene + Linsitinib (first compound 8 µM) it was 0.774; with Bexarotene + Tozasertib (first compound 0.08 µM) it was 0.544; with Bexarotene + Tozasertib (first compound 0.253 µM), 0.576; with Bexarotene + Tozasertib (first compound 0.8 µM), 0.604. Moreover, the relative viability amounted to 0.527 with Bexarotene + Tozasertib (first compound 2.53 µM) and 0.613 in the assay with Bexarotene + Tozasertib (first compound 8 µM).

Consider NCI-H358, for which the relative viability with Bexarotene + OSI-027 (first compound 0.08 µM) was found to be 0.764; with Bexarotene + OSI-027 (first compound 0.253 µM), 0.774; with Bexarotene + OSI-027 (first compound 0.8 µM), 0.685; with Bexarotene + OSI-027 (first compound 2.53 µM), 0.798; with Bexarotene + OSI-027 (first compound 8 µM), 0.633; with Bexarotene + Crizotinib (first compound 0.08 µM), 0.541. Besides, the relative viability with Bexarotene + Crizotinib (first compound 0.253 µM) is 0.603; in the assay with Bexarotene + Crizotinib (first compound 0.8 µM), 0.497; with Bexarotene + Crizotinib (first compound 2.53 µM), 0.66; with Bexarotene + Crizotinib (first compound 8 µM) it was 0.49; in the assay with Bexarotene + Linsitinib (first compound 0.08 µM) it was 0.874; in the assay with Bexarotene + Linsitinib (first compound 0.253 µM), 0.699. In addition, the relative viability was 0.568 in the assay with Bexarotene + Linsitinib (first compound 0.8 µM); 0.778 with Bexarotene + Linsitinib (first compound 2.53 µM); 0.643 with Bexarotene + Linsitinib (first compound 8 µM); 0.0977 with Bexarotene + Tozasertib (first compound 0.08 µM); 0.105 in the assay with Bexarotene + Tozasertib (first compound 0.253 µM); 0.0984 with Bexarotene + Tozasertib (first compound 0.8 µM). Besides, the relative viability with Bexarotene + Tozasertib (first compound 2.53 µM) stood at 0.108; in the assay with Bexarotene + Tozasertib (first compound 8 µM), 0.121.

Take NCI-H1915: the relative viability in the assay with Bexarotene + OSI-027 (first compound 0.08 µM) was 0.67; with Bexarotene + OSI-027 (first compound 0.253 µM) it was 0.661; with Bexarotene + OSI-027 (first compound 0.8 µM) it was 0.568; with Bexarotene + OSI-027 (first compound 2.53 µM), 0.594; with Bexarotene + OSI-027 (first compound 8 µM), 0.601; with Bexarotene + Crizotinib (first compound 0.08 µM), 0.969. The relative viability came to 0.948 in the assay with Bexarotene + Crizotinib (first compound 0.253 µM); 0.851 with Bexarotene + Crizotinib (first compound 0.8 µM); 0.905 with Bexarotene + Crizotinib (first compound 2.53 µM); 0.849 with Bexarotene + Crizotinib (first compound 8 µM); 1.16 in the assay with Bexarotene + Linsitinib (first compound 0.08 µM); 1.12 in the assay with Bexarotene + Linsitinib (first compound 0.253 µM). Further, the relative viability was determined as 1.03 with Bexarotene + Linsitinib (first compound 0.8 µM); 1.04 with Bexarotene + Linsitinib (first compound 2.53 µM); 1.07 with Bexarotene + Linsitinib (first compound 8 µM); 0.465 with Bexarotene + Tozasertib (first compound 0.08 µM); 0.492 with Bexarotene + Tozasertib (first compound 0.253 µM); 0.425 in the assay with Bexarotene + Tozasertib (first compound 0.8 µM). Further, the figures for the relative viability with Bexarotene + Tozasertib (first compound 2.53 µM) and with Bexarotene + Tozasertib (first compound 8 µM) were 0.339 and 0.376, respectively.

For the cell line RERF-LC-KJ, the relative viability in the assay with Bexarotene + OSI-027 (first compound 0.08 µM) came to 0.522; with Bexarotene + OSI-027 (first compound 0.253 µM), 0.572; in the assay with Bexarotene + OSI-027 (first compound 0.8 µM) it was 0.539; with Bexarotene + OSI-027 (first compound 2.53 µM), 0.562; with Bexarotene + OSI-027 (first compound 8 µM) it was 0.506; with Bexarotene + Crizotinib (first compound 0.08 µM), 0.773. The relative viability with Bexarotene + Crizotinib (first compound 0.253 µM) was 0.791; with Bexarotene + Crizotinib (first compound 0.8 µM), 0.76; in the assay with Bexarotene + Crizotinib (first compound 2.53 µM) it was 0.777; with Bexarotene + Crizotinib (first compound 8 µM) it was 0.752; with Bexarotene + Linsitinib (first compound 0.08 µM), 0.8; with Bexarotene + Linsitinib (first compound 0.253 µM), 0.827. For the same cell line, the relative viability with Bexarotene + Linsitinib (first compound 0.8 µM) was determined as 0.755; with Bexarotene + Linsitinib (first compound 2.53 µM), 0.782; with Bexarotene + Linsitinib (first compound 8 µM), 0.83; in the assay with Bexarotene + Tozasertib (first compound 0.08 µM), 0.459; with Bexarotene + Tozasertib (first compound 0.253 µM), 0.585; in the assay with Bexarotene + Tozasertib (first compound 0.8 µM) it was 0.415. Also, the relative viability was 0.467 with Bexarotene + Tozasertib (first compound 2.53 µM) and 0.542 in the assay with Bexarotene + Tozasertib (first compound 8 µM).
